In US10329243B2, “Biphenyl derivative and uses thereof” (XI'AN LIBANG PHARMACEUTICAL CO., LTD, priority 2015, dated 2019):

Columns and labels:
Assay type in all cases: in vivo, SD rats
TNF-α [1] = test: Determination of TNF-α in brain tissue homogenate, permanent cerebral ischemia model; details: permanent cerebral ischemia model rats; 40 mg/kg intravenously; 10% brain tissue homogenate, 24 h after the embolism
Protocol: (§1) Rats were intraperitoneally injected with 10% chloral hydrate 350 mg/kg after anesthesia and opened up at the center of the neck in accordance with the Zea Longa modified method. The right common carotid artery was separated, and the right external carotid artery branches was ligated. A small opening was made at the distal end of the external carotid artery, and a previously prepared thread was inserted through the common carotid artery and the external carotid artery bifurcation into the internal carotid artery, till the anterior end of the middle cerebral artery, with an immersed depth of 18 to 19 mm. The thread was then secured, and the wound was sutured layer by layer. After the operation, the rats were placed in a clean incubator to wake up. […] The sham operation group, the permanent cerebral ischemia model group, and the Example groups were prepared strictly according to the requirements of the cerebral ischemic reperfusion model, while in the sham operation group the thread was put only into the external carotid artery. The animals were allowed to eat and drink freely after waking up. The sham operation group, the permanent cerebral ischemia model group, and the Example groups were administered intravenously the aqueous solution of the biphenyl derivatives in PEG400 at 40 mg/kg (40 mg/kg means that 40 mg of the test compound per kg of the body weight of rats) 30 min before insertion of thread and 12 h after embolism, respectively. The sham operation group and the permanent cerebral ischemia model group were injected with the same amount of blank PEG400 aqueous solution at the same time point.
(§2) 24 hours after the embolism, 8 rats in each group were sacrificed by decapitation, the brain was removed, rinsed with PBS (pH 7.4) at −20°i for 20 min, evenly sliced (with a thickness of 2 mm), stained in a 2% TTC solution at 37°% in the dark for 30 min, fixed in 10% formalin for 24 h, and photographs were taken to analyze the infarct volume. A mixture of femoral arterial and venous blood was drawn from another 8 rats in each group under anesthesia, placed in a low temperature centrifuge at 4° C., centrifuged at 3500 r/min for 20 min, and the supernatant was stored in a refrigerator at −20° C. ready for SOD and MDA detection. After the blood was drawn, a perfusion needle was insert through the apex to the ascending aorta, and saline at 4° C. was rapid infused until the effluent became clear, followed by 4% paraformaldehyde phosphate buffer perfusion for fixation; the brain was removed by craniotomy, and brain tissues 2 mm in front of and behind the optic chiasma were taken and fixed, dehydrated, rendered transparent, impregnated in wax, and embedded. Brain continuous coronary tissue pathological sections were consecutively cut for later use. The remaining 8 rats in each group were sacrificed, brains were removed, the ischemic brain hemispheres were immediately taken on an ice tray, and 10% brain tissue homogenate was prepared for the detection of IL-1β and TNF-α.
(§3) Brain tissue homogenate was hypothermally centrifuged at 3000 rpm for 15 min, the supernatant was taken, and IL-1β and TNF-α were determined in strict accordance with instructions of the kits.

SOD [2] = test: SOD determination, cerebral ischemic reperfusion MCAO model; details: ischemic reperfusion MCAO rats; 40 mg/kg intravenously 30 min before and 12 h after reperfusion; serum, 24 h after reperfusion
Protocol: as §1, with “group, the ischemic reperfusion group, and” for “group, the permanent cerebral ischemia model group, and”, “waking up. After 2 h, the thread was pulled out to achieve reperfusion. The sham” for “waking up. The sham”, “min before reperfusion and 12” for “min before insertion of thread and 12”, “h after reperfusion, respectively. The” for “h after embolism, respectively. The”, “and the ischemic reperfusion group were” for “and the permanent cerebral ischemia model group were”
as §2, with “reperfusion,” for “the embolism,”, “−20° i” for “−20°i”
(§4) SOD and MDA were determined strictly in accordance with instructions of the kit.

TNF-α [3] = test: Determination of TNF-α in brain tissue homogenate, cerebral ischemic reperfusion MCAO model; details: ischemic reperfusion MCAO rats; 40 mg/kg intravenously; 10% brain tissue homogenate, 24 h after reperfusion
Protocol: as §1, with “group, the ischemic reperfusion group, and” for “group, the permanent cerebral ischemia model group, and”, “waking up. After 2 h, the thread was pulled out to achieve reperfusion. The sham” for “waking up. The sham”, “min before reperfusion and 12” for “min before insertion of thread and 12”, “h after reperfusion, respectively. The” for “h after embolism, respectively. The”, “and the ischemic reperfusion group were” for “and the permanent cerebral ischemia model group were”
as §2, with “reperfusion,” for “the embolism,”, “−20° i” for “−20°i”
as §3

IL-1β [4] = test: Determination of IL-1β in brain tissue homogenate, permanent cerebral ischemia model; details: permanent cerebral ischemia model rats; 40 mg/kg intravenously; 10% brain tissue homogenate, 24 h after the embolism
Protocol: as §1, §2, §3

[5] = system: rats with cerebral ischemic reperfusion injury; test: Relative infarct volume (TTC, imageJ), cerebral ischemic reperfusion MCAO model; details: ischemic reperfusion MCAO rats; 40 mg/kg intravenously 30 min before and 12 h after reperfusion; 24 h after reperfusion
Protocol: as §1, with “group, the ischemic reperfusion group, and” for “group, the permanent cerebral ischemia model group, and”, “waking up. After 2 h, the thread was pulled out to achieve reperfusion. The sham” for “waking up. The sham”, “min before reperfusion and 12” for “min before insertion of thread and 12”, “h after reperfusion, respectively. The” for “h after embolism, respectively. The”, “and the ischemic reperfusion group were” for “and the permanent cerebral ischemia model group were”
as §2, with “reperfusion,” for “the embolism,”, “−20° i” for “−20°i”
The infarct area in each brain section was analyzed and quantified by the imageJ image software, and the ratio of cerebral infarction volume in the overall brain volume was calculated.

SOD [6] = test: SOD determination, permanent cerebral ischemia model; details: permanent cerebral ischemia model rats; 40 mg/kg intravenously; serum, 24 h after the embolism
Protocol: as §1, §2, §4

IL-1β [7] = test: Determination of IL-1β in brain tissue homogenate, cerebral ischemic reperfusion MCAO model; details: ischemic reperfusion MCAO rats; 40 mg/kg intravenously; 10% brain tissue homogenate, 24 h after reperfusion
Protocol: as §1, with “group, the ischemic reperfusion group, and” for “group, the permanent cerebral ischemia model group, and”, “waking up. After 2 h, the thread was pulled out to achieve reperfusion. The sham” for “waking up. The sham”, “min before reperfusion and 12” for “min before insertion of thread and 12”, “h after reperfusion, respectively. The” for “h after embolism, respectively. The”, “and the ischemic reperfusion group were” for “and the permanent cerebral ischemia model group were”
as §2, with “reperfusion,” for “the embolism,”, “−20° i” for “−20°i”
as §3

## CC(=O)OC(C)Oc1c(C(C)C)cc(-c2cc(C(C)C)c(O)c(C(C)C)c2)cc1C(C)C (stereo not shown) [Example 12 group, Ethyl 1-(4′-hydroxy-3,3′,5,5′-tetraisopropylbiphenyl-4-oxo)acetate]
TNF-α [1]
  TNF-α content: 5.38 ± 0.59 ng/mL
SOD [2]
  SOD ACTIVITY (U/mL): 92.39 ± 5.27 U/mL
TNF-α [3]
  TNF-α content: 4.95 ± 0.67 ng/mL
IL-1β [4]
  IL-1β content: 0.75 ± 0.04 ng/mL
[5]
  Relative Brain infarction volume (%): 25.54 ± 3.29 %
SOD [6]
  SOD ACTIVITY (U/mL): 91.25 ± 3.84 U/mL
IL-1β [7]
  IL-1β content: 0.74 ± 0.06 ng/mL
